Experimental data reported in patent US20250352520A1, “USE OF DEXPRAMIPEXOLE FOR THE TREATMENT OF EOSINOPHILIC COPD” (Areteia Therapeutics, Inc., priority 2024, published 2025).
Like-named read-outs stand apart in the source and are kept apart here.

Assays:
[1] = Phase III, participants with ALS; cited from earlier work
[2] = for CT Scan - Mucus Score, Change from Baseline / CT Scan - Mucus Score, Result: Week 16
Source text: Mucus dysfunction, a central pathology in patients with COPD, is characterized by excess mucus production, hypersecretion, and reduced clearance, leading to accumulation in the airways as mucus plugs. Computed tomography (CT) scans of individuals with COPD can be assessed by a physician or clinician trained in lung imaging. Mucus plug scoring is assigned based on the number of lung segments with mucus plugs, ranging from 0 (no mucus plugs seen on CT scan) to 20 (all lung segments with mucus plugs).
All eligible participants received inspiratory and expiratory CT scans at Baseline and at Week 16 to assess for changes in mucus plugs and airway architecture (e.g., changes in airway wall thickness).
[…] underwent at CT scan with mucus plug scoring.

## CCCN[C@@H]1CCc2nc(N)sc2C1 [Dexpramipexole, (6R)-2-amino-4,5,6,7-tetrahydro-6-(propylamino)benzothiazole]
[1]
  absolute eosinophil count (AEC): substantial, durable, and targeted reduction
  efficacy in ALS: failed to demonstrate efficacy
[2]; Subject ID 10001-001-0001
  CT Scan - Mucus Score, Change from Baseline: 0.00
  CT Scan - Mucus Score, Result: 1.00
[2]; Subject ID 10001-001-0002
  CT Scan - Mucus Score, Change from Baseline: 0.00
  CT Scan - Mucus Score, Result: 0.00
[2]; Subject ID 10001-008-0002
  CT Scan - Mucus Score, Change from Baseline: 3.00
  CT Scan - Mucus Score, Result: 3.00
[2]; Subject ID 10001-010-0005
  CT Scan - Mucus Score, Change from Baseline: 0.00
  CT Scan - Mucus Score, Result: 0.00
[2]; Subject ID 10001-022-0001
  CT Scan - Mucus Score, Change from Baseline: −4.00
  CT Scan - Mucus Score, Result: 0.00
[2]; Subject ID 10001-022-0006
  CT Scan - Mucus Score, Change from Baseline: 3.00
  CT Scan - Mucus Score, Result: 6.00
[2]; one patient, week 16, score of 4 at baseline
  mucus plug score: 0
